In patent US7772367B2, “C-terminal p53 palindromic peptide that induces apoptosis of cells with aberrant p53 and uses thereof” (The Trustees of Columbia University in the City of New York, priority 2004, dated 2010):
“Also recorded” adds a separate entry of the source. Where a SMILES comes first, the peptide text is derived from it. The star is where a group is joined. Cbz = O=C(OCc1ccccc1)*; CH2F = FC*

Legend:
[1] = tested on: engineered MDA-MB-468 human breast cancer cells; experiment: TUNEL assay with flow cytometry on engineered cells; format: cell-based; details: 2 μM inhibitor added 6 hours after doxycycline, 24 hr total
Protocol: TUNEL assay on engineered MDA-MB-468 human breast cancer cells after 24 hours of exposure to 2 μg/ml Doxycycline.
(§1) Furthermore, using a specific inhibitor for caspase 8 eliminated the death induced by the C-terminal p53 palindromic tetrapeptide expression. The cleavage of the DNA repair signal protein poly-adenosyl-ribose polymerase (PARP), a key indicator of apoptosis, was also observed with the C-terminal p53 palindromic tetramer expression (FIGS. 5 and 6). Finally, one of the later events to occur as cells are undergoing apoptosis is the endonuclease cleavage of chromatin DNA at the DNA linker site between nucleosomes. These DNA fragments can be end-labeled with fluorescent-dUTP with the use of terminal deoxynucleotidyl transferase. This technique, called TUNEL, is extremely sensitive for the detection of apoptosis. We used a commercial TUNEL assay (Medical & Biological Labs, Nagoya, Japan) with flow cytometry to examine these engineered cells. By this assay, 80% of the cells were killed with induction of the 4 repeat by doxycycline treatment (FIG. 7). Furthermore, by using a specific inhibitor for caspase 8, IETD-FMK ([…], Nagoya, Japan), death induced by the C-terminal p53 palindromic peptide expression (FIG. 7) was eliminated. All of these findings support an apoptotic mechanism of cell death by this peptide.

[2] = tested on: p53 responsive proteins (Bax, Fas, caspase 8) and PARP in engineered MDA-MB-468 cells; experiment: Immunoblot of p53 responsive proteins and PARP cleavage after doxycycline induction; format: cell-based, human; details: for Bax expression: doxycycline 2 μg/ml, 12, 36 and 48 hours; for PARP cleavage product: after 4-repeat induction with doxycycline
Protocol: Changes in the protein expression levels for the pro-apoptotic protein Bax, an active p53 responsive gene, induced by exposure to the tetracycline analog doxycycline (2 μg/ml) for 12, 36 and 48 hours. Engineered MDA-MB-468 cells were collected after the indicated exposure times and the total protein was extracted, an aliquot was run on a 12% acrylamide/SDS PAGE gel, and blotted onto nitrocellulose membranes. Antibodies specific for Bax, the 4-repeat (p53) and PARP were used to determine expression levels and α-tubulin was used as a loading control.
Changes in the protein expression levels for the p53 responsive genes encoding Fas and caspase 8, 24 hours after the engineered MDA-MB-468 cells were exposed to the indicated concentrations of doxycycline. A PARP cleavage product is also shown. α-tubulin was used as a loading control.
For the tetracycline-inducible peptide systems in MDA-MB-468 cells, cells were exposed to various concentrations of doxycycline for 24-48 hours and cell death measured by trypan blue exclusion (only dying cells are permeable to this dye) and propidium iodide staining (as above, in cells undergoing apoptosis DNA is cleaved so less PI can be bound resulting in accumulation of a sub-G1 peak of cells on flow cytometry). […] This implies a unique difference between the monomer and the 4 repeat.
as §1

[3] = tested on: MDA-MB-468 human breast cancer cells; experiment: Propidium iodide staining / flow cytometry (sub-G1) of cells exposed to purified peptide; format: cell-based; details: 30 uM peptide, 6 hours
Protocol: Effects of the C-Terminal p53 Palindromic Tetrapeptide on Cells in Culture. MDA-MB-468 human breast cancer cells were grown in culture and exposed for 6 hours with no peptide (control) or with 30 μM of either the single p53 C-terminal peptide fused to the Ant carrier (p53-Ant) or with the His tagged p53 palindromic tetrapeptide fused to the Ant carrier (4 Repeat). The DNA within the cells was then stained with propidium iodide and cell particles were assayed by flow cytometry. The percent within each graph represents the percent cell particles with less than a diploid amount of DNA, indicative of apoptotic cells (sub G1 population).
In order to test the effect of the C-terminal p53 palindromic peptide cloned in E. Coli on cells in culture, the purified peptide was incubated at 30 μM with the human breast cancer cell line MDA-MB-468, and the effects compared to original monomer or single C-terminal peptide. Prior experiments had shown that exposure at this concentration was less than the IC50 for the original peptide. […] The DNA content was then quantified by flow cytometry in a FACSCalibur Cell Sorter (BD Bioscience, San Diego, Calif.). Cell cycle profiles were obtained, and the percentage of cells containing less than the diploid amount of DNA, indicative of cell undergoing cell death by apoptosis (sub-G1 peak), was quantified (FIG. 3).

9L rat glioma = experiment: Survival of rats with intracerebral 9L glioma infused with adenovirus; format: in vivo, male fischer rats; details: concluding statement of rat glioma study
Protocol: Survival analysis of male rats initially injected with 5 μl of 10^5 9L cells over […] (Tumor implantation) through a catheter stereotactically inserted into the right caudate nucleus. These rats were subsequently infused with 7-8 μl volumes per day over 3 hours a day for a total of 7 days in three groups as follows: 2 rats received phosphate buffered saline (PBS control) solution, 3 rats received Ad/vector control virus (Empty Virus Control), and 10 rats received Ad/4-rep-p53p adenovirus containing the tetrapeptide C-terminal p53 peptide.) The average survival time for the groups were: 20 days for the PBS control group, 27 days for the adenovirus vector control group (23.25 days for the combined control groups) and 37.25 days for the Ad/4-rep-p53p Adenovirus treated group. Thus, the treatment group infected with the adenovirus containing the C-terminal palindromic tetrapeptide experienced an 86% increase in survival compared to the PBS controls and a 60% increase in survival compared to the combined controls. […]
For animal studies, 15 male fischer rats (age 12-14 weeks, 250 g) were anesthetized, and a 20 gauge plastic guide cannula was cemented into their skulls. […] The rats were monitored for an additional 44 days to determine differences in survival among groups.

[4] = tested on: normal cells including the pluripotent stem cells for granulocytes, erythrocytes, monocytes and macrophages; experiment: Effect on normal cells; format: cell-based
MDA-MB-468 cells [5] = experiment: Trypan blue exclusion in tetracycline-inducible peptide-expressing cells; format: cell-based, human; details: doxycycline induction 24-48 hours
Description: The MDA-MB-468 breast cancer cell line which expresses high levels of mutant p53 (Arg to His substitution at amino acid 273, one of the two most common p53 mutations in human cancers) was chosen as the model system. The tetracycline-inducible RevTet-On System (Clontech Laboratories, Palo Alto, Calif.) was used for these studies. Stably expressed reverse tetracycline-controlled transactivator (rtTA), under the control of a CMV promoter, was first established in the MDA-MB-468 cell line. Initially immunoblots with an antibody against the transactivator were used to identify high expression; subsequently a luciferase reporter system was used to identify highly inducible clones. This assay incorporated a luciferase reporter (Promega, Madison, Wis.) with the inducible pREvTRE vector of the RevTet-On system to measure the ability of tetracycline to induce luciferase activity. […]
(§2) For the tetracycline-inducible peptide systems in MDA-MB-468 cells, cells were exposed to various concentrations of doxycycline for 24-48 hours and cell death measured by trypan blue exclusion (only dying cells are permeable to this dye) and propidium iodide staining (as above, in cells undergoing apoptosis DNA is cleaved so less PI can be bound resulting in accumulation of a sub-G1 peak of cells on flow cytometry). […]

MDA-MB-468 cells [6] = experiment: Propidium iodide staining / flow cytometry (sub-G1) in tetracycline-inducible peptide-expressing cells; format: cell-based, human
Protocol: Effects of endogenous, regulated expression of the 4 repeat peptide on cell viability. MDA-MB-468 cells engineered to express the palindromic p53 4 repeat peptide under the control of a tetracycline responsive promoter were cultured without or with the addition of 2 μg/ml doxycycline, an analog of tetracycline, for 24, 48 or 72 hours. Cells were collected, fixed in ice cold 70% ethanol and the DNA was stained with propidium iodide. Cell cycle profiles were obtained by flow cytometry and the percent of sub-G1 cell particles, indicative of apoptosis, was quantified.
The MDA-MB-468 breast cancer cell line which expresses high levels of mutant p53 (Arg to His substitution at amino acid 273, one of the two most common p53 mutations in human cancers) was chosen as the model system. The tetracycline-inducible RevTet-On System (Clontech Laboratories, Palo Alto, Calif.) was used for these studies. […]
as §2

MDA-MB-468 tumors = experiment: Inducible expression in MDA-MB-468 tumors in athymic nude mice; format: in vivo; details: doxycycline 0.5 mg/ml in drinking water; described in present tense
Protocol: Four groups of ten animals each are used. Groups 1 and 2 are injected with one million MDA-MB-468 cells containing the inducibly expressible palindromic tetramer in 0.5 ml of basement membrane media. Groups 3 and 4 are injected with one million MDA-MB-468 cells containing the inducibly expressible GFP. The tumors are allowed to develop to a measurable state (approximately 2-3 weeks). Then groups 1 and 3 are given 0.5 mg/ml doxycycline in their drinking water, and groups 2 and 4 are given drinking water without doxycycline. Tumor sizes are measured daily. Animals are then euthanized and the tumors removed for analysis. Tumor sections are assayed for levels of apoptosis by DNA cleavage assay (TUNEL) and activation of caspases and cleavage of PARP.

| Molecule | effect of caspase 8 inhibitor on death/TUNEL shift induced by palindromic peptide expression [1] | Bax expression [2] | cell death (PI staining, sub-G1 population) [3] [%] | apoptosis of cancer cells in animals (9L rat glioma) | effect on normal cells [4] | Fas expression ([2]; 24 hours doxycycline) | caspase 8 expression ([2]; 24 hours doxycycline) | PARP cleavage product [2] | PARP cleavage product ([2]; listed as C-terminal p53 palindromic tetramer) | decrease in viability (trypan blue exclusion) (MDA-MB-468 cells [5]) | cell death (sub-G1 peak, propidium iodide staining) (MDA-MB-468 cells [6]; after doxycycline induction, stably expressing cell lines) [%] | apoptosis (propidium iodide staining and flow cytometry) (MDA-MB-468 cells [6]; doxycycline induction, FIG. 4) | apoptosis of cancer cells in animals (MDA-MB-468 tumors) |
| --- | --- | --- | --- | --- | --- | --- | --- | --- | --- | --- | --- | --- | --- |
| CC[C@H](C)[C@H](NC(=O)OCc1ccccc1)C(=O)N[C@@H](CCC(=O)OC)C(=O)N[C@H](C(=O)N[C@@H](CC(=O)OC)C(=O)CF)[C@@H](C)O [IETD-FMK] (Cbz-IE(OMe)TD(OMe)-CH2F) | no shift occurs; also recorded: eliminated | – | – | – | – | – | – | – | – | – | – | – | – |
| CSCC[C@H](NC(=O)[C@H](CCCCN)NC(=O)[C@H](Cc1c[nH]c2ccccc12)NC(=O)[C@H](CCCCN)NC(=O)[C@H](CCCCN)NC(=O)[C@H](CCCCN)NC(=O)[C@H](CCCCN)NC(=O)[C@H](Cc1c[nH]cn1)NC(=O)[C@H](CCCNC(=N)N)NC(=O)[C@H](CO)NC(=O)[C@@H](NC(=O)[C@H](CO)NC(=O)[C@H](CCC(N)=O)NC(=O)CNC(=O)[C@H](CCCCN)NC(=O)[C@H](CCCCN)NC(=O)[C@H](CO)NC(=O)[C@H](CCCCN)NC(=O)[C@H](CC(C)C)NC(=O)[C@H](Cc1c[nH]cn1)NC(=O)[C@H](CO)NC(=O)[C@H](CO)NC(=O)[C@H](Cc1c[nH]cn1)NC(=O)[C@H](C)NC(=O)[C@H](CCCNC(=N)N)NC(=O)[C@H](CO)NC(=O)CN)[C@@H](C)O)C(=O)N[C@@H](CCCNC(=N)N)C(=O)N[C@@H](CCCNC(=N)N)C(=O)N[C@@H](CC(N)=O)C(=O)N[C@@H](CCC(N)=O)C(=O)N[C@@H](Cc1ccccc1)C(=O)N[C@@H](Cc1c[nH]c2ccccc12)C(=O)N[C@H](C(=O)N[C@@H](CCCCN)C(=O)N[C@H](C(=O)N[C@@H](CCC(N)=O)C(=O)N[C@@H](CCCNC(=N)N)C(=O)NCC(=O)O)C(C)C)C(C)C [p53 C-terminal peptide (single repeat), reference compound] (H-GSRAHSSHLKSKKGQSTSRHKKKKWKMRRNQFWVKVQRG-OH; N-terminus and C-terminus assumed) | – | did not | 23 | – | – | – | – | – | – | – | – | – | – |
| p53 palindromic tetramer: C-terminal p53 palindromic tetrapeptide (four aa 353-393 segments, glycine-linked) expressed in cells from inducible or viral construct | – | increase in the expression | – | found to induce apoptosis | no to minimal effect | increase in the expression | increase in the expression | observed even 12 hours after | observed | greater than 80% | 43 | greater than 40% | found to induce apoptosis |
